From publication PMC5620571, “Pharmacokinetic Analysis of an Oral Multicomponent Joint Dietary Supplement (Phycox®) in Dogs” (Pharmaceutics, 2017)
Entries after “also recorded” stand apart in the source; their conditions may differ. Where a name gives a salt, the structure may show the parent alone. Read-outs that look alike come from different tables or passages of the source.

Key:
[1] = Single-dose oral pharmacokinetic study of one Phycox soft chew in dogs (serum, LC-MS/MS, non-compartmental analysis); format: in vivo, dog (female Beagle); settings: for serum concentration of polyphenol (aglycone or glucuronidated metabolite): single PO Phycox soft chew (36.1 μg ±hesperetin, 0.554 μg trans-resveratrol, 2.88 μg ±naringenin), serum 0-24 h; for half-life: po, 450 mg
From the text: The animal research protocol used in this study was reviewed and approved by the Institutional Animal Care and Use Committee at Washington State University (protocol #04224-011, approved 21 December 2014). Four commercially available purpose-bred intact female research Beagles from an Association for Assessment and Accreditation of Laboratory Animal Care (AALAC) certified source were used for the study. All dogs were 2 years of age at the onset of the study with a weight of 9.25 ± 0.81 kg (mean ± SD; range 8.4–10.2 kg). Animals were housed in AALAC approved facilities for animal research for 80 days acclimating to their environment prior to the initiation of the study. All dogs were fed a standard canine formulation (Proactive Health™ Adult Minichunks, IAMS, Mason, OH, USA) ration twice daily and housed in a temperature and humidity controlled room; 21 °C and 30%, respectively, while under 12 h light cycle conditions. The dogs underwent daily examinations and weekly body weight assessments. All animals were also given daily enrichment activities before, during, and after the study. At study termination all animals were transferred to an unrelated study. Dogs were fasted 12 h prior to the study but provided free access to water. Each subject was administered a single Phycox® soft chew and a series of blood samples (3 mL) were collected at 0, 1, 2, 4, 6, 8, 12 and 24 h post-dose via saphenous or cephalic vein depending on the temperament of the animals. Animals were fed after 2 h post-dose. Following centrifugation of the blood samples, serum was removed and stored at −80 °C until analyzed. One hundred microliters of serum from each PK sample was placed into a microcentrifuge tube. To all samples, except 0 h, 40 μL of 0.1 μg/mL internal standard stock solution (caffeine) was added along with 1.0 mL of cold acetonitrile (−20 °C) to precipitate proteins. The samples were vortexed and centrifuged at 20,160× g for 5 min. […] The residues were reconstituted with 50 μL of starting mobile phase (0.05% aqueous formic acid), vortexed and centrifuged at 20,160× g for 5 min. The supernatants were transferred to 30 kDa centrifugal filter tubes and centrifuged for 30 min at 9000× g. The filtrate was transferred to HPLC vials and 5 μL were injected into the LC-MS/MS system. The PK serum samples were separated into two sets of microcentrifuge tubes (total and aglycone) with 100 μL of serum in each. To the total samples, 20 μL β-glucuronidase (500 U/mL in 6.8 pH phosphate buffer) was added and incubated for 2 h at 37 °C [28]. To all samples except 0 h, 20 μL of 10 μg/mL internal standard stock solution (±liquiritigenin) was added along with 1.0 mL of cold acetonitrile (−20 °C) to precipitate proteins. […] The residues were reconstituted with 50 μL of mobile phase (50% aqueous methanol with 0.1% formic acid), vortexed and centrifuged at 20,160× g for 5 min. The supernatants were transferred to 30 kDa centrifugal filter tubes and centrifuged for 30 min at 9000× g. The filtrate was transferred to HPLC vials and 5 μL were injected into the LC-MS/MS system. PK samples were analyzed using Phoenix WinNonlin software (ver. 6.3; Certara, St. Louis, MO, USA) to derive the pharmacokinetic parameters for each individual dog and expressed as mean ± SEM. A non-compartmental analysis was used to calculate the PK parameters including area under the curve (AUC0–∞), the peak serum concentration (Cmax), time to reach peak serum concentration (Tmax), the apparent volume of distribution (Vd/F), the elimination half-life (t1/2), and the apparent clearance (CL/F). The elimination rate constant (KE), was estimated by log-linear regression of the serum concentrations. The AUC0–∞ was calculated using the long-linear trapezoidal rule for data from time of dosing to the last measured concentration plus the quotient of the last measured concentration divided by KE/2.303. The concentration time points of the animals were subjected to non-compartmental modeling.

[2] = Oral pharmacokinetics of glucosamine HCl in Beagle dogs (Adebowale et al.); format: in vivo; settings: longer than in this study (Phycox soft chew, 450 mg)
Procedure: Two previous studies have evaluated the oral pharmacokinetics of glucosamine HCl in Beagle dogs. Adebowale et al. administered 1500–2000 mg of glucosamine HCl to eight dogs and used non-compartmental modeling to derive PK parameters. […] The serum-concentration time curve reported in Adebowale et al. was similar in shape to the curve reported in this study but the half-lives were reported to be between 1.52–2.4 h, which is […] than the half-live reported in this study. […] The method employed by the study utilized a validated HPLC method with a limit of quantification of 1.25 μg/mL and involved pre-column derivatization. The amount of glucosamine administered in the present study was 3.3 to 4.4 less than those administered in the study by Adebowale et al. but the method employed in this study was 250 times more sensitive allowing for detection of much smaller concentrations of glucosamine. Various LC-MS-MS assays are validated in the literature across various fluids and species. […] The second report of glucosamine HCl PK in dogs administered 1000 mg of glucosamine HCl to four male dogs using two commercially available chewable tablet formulations. […] The method employed by the study used a modified HPLC method with a limit of quantification of 0.05 μg/mL (10 fold higher limit of quantitation than the method presented in this study) and involved pre-column derivatization. […]

[3] = set-up: method as in PMID 12214321; settings: cited from earlier work
[4] = set-up: method as in PMID 26205697; settings: cited from earlier work
[5] = set-up: method as in PMID 19647388; settings: Beagle dogs; cited from earlier work
[6] = female, Beagle, dog, glucosamine HCl 450 mg in one Phycox soft chew PO, fasted dogs, serum, n = 4, mean ± SEM
[7] = 1000 mg glucosamine HCl, four male dogs, two commercially available chewable tablet formulations

half-life ([1]; female, Beagle, dog, serum, glucosamine HCl 450 mg in one Phycox soft chew PO, dogs, serum, read-out: apparent t1/2) | half-life ([1]; female, Beagle, dog, serum, glucosamine HCl 450 mg in one Phycox soft chew PO, fasted dogs, serum, n = 4, mean ± SEM, read-out: t1/2 (converted)) | AUC(0-inf) [1, 6] | CL/F [1, 6] | Cmax [1, 6] | Tmax [1, 6] | Vd/F [1, 6] | time post-dose up to which glucosamine was detected in serum ([1]; single PO Phycox soft chew, dogs, samples collected for 24 h, LOQ 5 ng/mL) | half-life of Adebowale et al. relative to the half-life of this study [2] | Structure (SMILES) | serum concentration of polyphenol (aglycone or glucuronidated metabolite) ([1]; dogs, LOQ 5 ng/mL) | serum concentration of polyphenol (aglycone or glucuronidated metabolite) ([1]; dogs, LOQ 5 ng/mL, listed as ±Hesperetin) | half-lives ([3]; 1500–2000 mg glucosamine HCl oral, eight Beagle dogs) | detection of glucosamine ([3]; after 4 h post-dose, HPLC, LOQ 1.25 μg/mL) | Cmax [4, 7] | Tmax [4, 7] | detection of glucosamine ([4]; at 12 h post-dose, HPLC, LOQ 0.05 μg/mL) | absorption of glucosamine co-administered with chitosan compared to glucosamine alone [5]
 |  |  |  |  |  |  |  |  | COc1ccc(C2CC(=O)c3c(O)cc(O)cc3O2)cc1O (racemic) [±hesperetin] | no compounds were detected at quantifiable concentrations | not detected at quantifiable concentrations |  |  |  |  |  | 
~35 min | 35 ± 2.04 min | 20400 ± 2340 ng·h/mL | 42.7 mL/min/kg | 9690 ± 1140 ng/mL | 120 min | 2.1 ± 0.254 L/kg | up to 8 h | 3–5 times | N[C@H]1C(O)O[C@H](CO)[C@@H](O)[C@@H]1O (stereo partly drawn) [glucosamine, glucosamine hydrochloride] |  |  | 1.52 to 2.4 h | not able to detect | 1800 to 2600 ng/mL | 252 to 300 min | not able to detect | increased
 |  |  |  |  |  |  |  |  | Oc1ccc(/C=C/c2cc(O)cc(O)c2)cc1 [trans-resveratrol] | not detected at quantifiable concentrations; also recorded: no compounds were detected at quantifiable concentrations |  |  |  |  |  |  | 
